US8691522B2, “Composition comprising extracellular membrane vesicles derived from indoor air, and use thereof” (priority 2009, dated 2014)

Key:
[1] = tested on: mouse macrophages (RAW 264.7); assay: In vitro innate immunity: cytokine secretion (ELISA) of macrophages treated with indoor dust-derived vesicles; type: cell-based; conditions: Dust-EV treated with PMB or heat, vs Dust-EV alone
Procedure: Indoor dust was solubilized in PBS to separate extracellular vesicles and soluble components. The induction of innate immune responses by the vesicles and the water-soluble components was examined in vitro by applying them to mouse macrophages and measuring cytokine levels in the culture media.
(§1) In detail, mouse macrophages (RAW264.7) were seeded at a density of 1×10^5 cells/well into 24 well plates and maintained for 24 hours. After the cells were washed with PBS, a fresh DMEM medium was added to the cells which were then incubated for 15 hours with dust-derived extracellular vesicles (Dust-EV, 0.1 μg/ml) and soluble components (Dust-soluble, 8 μg/ml), separately. The culture media were harvested and centrifuged at 4° C. and 800×g for 10 min. Cytokines in the supernatant were quantitatively analyzed by enzyme linked immunosorbent assay (ELISA).
In addition, cytokine levels were measured after the cells were treated with 100 ng/ml and 1 μg/ml of the extracellular vesicles in the same manner as described above.
It is well known that LPS, found in the outer membrane of Gram-negative bacteria, acts as an endotoxin to induce innate immune responses and that it has been detected in indoor dust.

C57BL/6 mice = assay: In vivo acquired immune response to repetitive intranasal Dust-EV with or without PMB; parameters: species or system mouse
Procedure: C57BL/6 mice (6 weeks old, female, four in each group) were intranasally administered twice a week for three weeks with 1 μg of indoor dust-derived extracellular vesicles in 30 μl of PBS. In addition, the vesicles were administered together with PMB so as to examine the presence and role of LPS therein. Twenty four hours after injection, clinical analysis was performed.
Moreover, the immunological mechanism associated with the onset of lung inflammation was evaluated. Immune cells were separated from local lymph nodes and analyzed for the expression levels of IFN-γ and IL-17.

[2] = tested on: mouse macrophages (RAW 264.7); assay: In vitro innate immune response: cytokine secretion (ELISA) of macrophages treated with HDM-EV; type: cell-based; conditions: house dust mite-derived vesicles with Polymyxin B
Procedure: as §1, with “grown” for “maintained”, “100 ng, 1 μg and 10 μg of house dust mite-derived” for “dust-derived”, “(HDM-EV).” for “(Dust-EV, 0.1 μg/ml) and soluble components (Dust-soluble, 8 μg/ml), separately.”

[3] = vesicles in combination with PMB, ELISA

In the case of Polymyxin B [PMB], the “vesicle-induced secretion of IL-6” value [1] was “significantly reduced”, the “vesicle-induced secretion of TNF-α” value [1] was “significantly decreased” and the “count of inflammatory cells in BAL fluid” value (C57BL/6 mice; Dust-EV administered together with PMB (Dust-EV+PMB), in contrast to vesicles alone) was “low”. For the same substance, the “count of T cells secreting IFN-γ and IL-17 in local lymph nodes” value (C57BL/6 mice; Dust-EV in the presence of PMB) was “reduced the count of T cells including those secreting IFN-γ and IL-17 in local lymph nodes”, the “level of IgG1 specific for indoor dust-derived vesicles in sera” value (C57BL/6 mice; [3]) was “reduced to almost the same as those of the PBS group” and the “level of IgG2a specific for indoor dust-derived vesicles in sera” value (C57BL/6 mice; [3]) was “reduced to almost the same as those of the PBS group”. The “vesicle-induced secretion of inflammatory mediators” value [2] was “suppressed”.
